# Results taken from publication PMC10331789 (Journal of natural products, 2023).
# pIC50: −log10 of the molar value.
# Biological target: Na+/K+-ATPase (NKA)
# Assay: luminescent ADP detection assay
# Type: biochemical, Sus scrofa
smiles,measurement,value
"CO[C@H]1C[C@H](O[C@H]2CC[C@@]3(C)[C@@H](C2)C[C@@H]2O[C@]24[C@@H]3[C@H](O)C(=O)[C@]2(C)[C@@H](C3=CC(=O)OC3)CC[C@]42O)O[C@@H](C)[C@@H]1O [compound 1, (–)-cryptanoside A]",pIC50,5.92
